According to ChEMBL document CHEMBL3763133, “4-Arylbenzenesulfonamides as Human Carbonic Anhydrase Inhibitors (hCAIs): Synthesis by Pd Nanocatalyst-Mediated Suzuki-Miyaura Reaction, Enzyme Inhibition, and X-ray Crystallographic Studies” (J Med Chem, 2016):

Experiments:
[1] = biological target: Carbonic anhydrase 12 (Homo sapiens, UniProt O43570); assay: Inhibition of human carbonic anhydrase 12 incubated for 15 mins prior to testing by CO2 hydration-based stopped flow assay
[2] = biological target: T1, Carbonic anhydrase 9 (Homo sapiens, UniProt Q16790); assay: Inhibition of human carbonic anhydrase 9 incubated for 15 mins prior to testing by CO2 hydration-based stopped flow assay
[3] = biological target: Carbonic anhydrase 2 (Homo sapiens, UniProt P00918); assay: Inhibition of human carbonic anhydrase 2 incubated for 15 mins prior to testing by CO2 hydration-based stopped flow assay
[4] = biological target: T2, Carbonic anhydrase 1 (Homo sapiens, UniProt P00915); assay: Inhibition of human carbonic anhydrase 1 incubated for 15 mins prior to testing by CO2 hydration-based stopped flow assay
Target sequence in this assay (P00915 whole entry): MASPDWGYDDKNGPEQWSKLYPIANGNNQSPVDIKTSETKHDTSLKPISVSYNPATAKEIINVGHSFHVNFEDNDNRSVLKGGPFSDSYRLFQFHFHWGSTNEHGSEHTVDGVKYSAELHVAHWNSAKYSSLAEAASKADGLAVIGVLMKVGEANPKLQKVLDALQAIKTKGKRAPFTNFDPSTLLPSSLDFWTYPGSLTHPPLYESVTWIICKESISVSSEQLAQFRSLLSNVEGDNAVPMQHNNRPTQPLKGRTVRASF

[5] = biological target: T1, Carbonic anhydrase 9; assay: Potency index, ratio of Ki for acetazolamide to Ki for test compound for inhibition of human carbonic anhydrase 9
[6] = biological target: T2, Carbonic anhydrase 1; assay: Potency index, ratio of Ki for acetazolamide to Ki for test compound for inhibition of human carbonic anhydrase 1
Target sequence in this assay (P00915 2-261 limits assumed): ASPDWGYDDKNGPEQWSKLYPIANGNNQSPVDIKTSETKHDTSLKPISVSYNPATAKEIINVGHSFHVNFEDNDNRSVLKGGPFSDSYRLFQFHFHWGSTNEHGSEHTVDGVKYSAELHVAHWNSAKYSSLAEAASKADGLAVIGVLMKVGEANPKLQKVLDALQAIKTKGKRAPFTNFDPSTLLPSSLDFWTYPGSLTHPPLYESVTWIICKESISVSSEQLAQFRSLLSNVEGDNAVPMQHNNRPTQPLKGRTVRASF

Chain of Carbonic anhydrase 12 (O43570 whole entry): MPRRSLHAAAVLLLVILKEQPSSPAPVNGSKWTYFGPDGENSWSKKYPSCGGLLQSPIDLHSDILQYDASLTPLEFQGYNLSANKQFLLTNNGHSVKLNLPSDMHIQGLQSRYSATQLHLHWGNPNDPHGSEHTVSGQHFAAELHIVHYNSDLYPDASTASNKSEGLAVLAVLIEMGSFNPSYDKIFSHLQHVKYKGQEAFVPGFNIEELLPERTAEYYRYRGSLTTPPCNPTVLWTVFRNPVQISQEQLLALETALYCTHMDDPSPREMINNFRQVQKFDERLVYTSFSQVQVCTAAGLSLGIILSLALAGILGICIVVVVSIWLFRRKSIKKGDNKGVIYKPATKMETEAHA

Ki [1]	Ki [2]	Ki [3]	Ki [4]	Ratio Ki [5]	Ratio Ki [6]	SMILES
> 10000 nM	0.37 nM	0.7 nM	185 nM	100		NS(=O)(=O)c1ccc(-c2cc3ccccc3o2)cc1
> 10000 nM	0.22 nM	0.69 nM	1000 nM	100		NS(=O)(=O)c1ccc(-c2ccc3ccccc3c2)cc1
0.58 nM		2.1 nM	1180 nM			NS(=O)(=O)c1ccc(-c2cccc(C=O)c2)cc1
4.3 nM	126 nM	9.3 nM	2340 nM			Nc1cccc(-c2ccc(S(N)(=O)=O)cc2)c1
0.58 nM		0.98 nM	146 nM			CC(C)c1ccccc1-c1ccc(S(N)(=O)=O)cc1
47 nM		1.2 nM	3500 nM			Cc1ccccc1-c1ccc(S(N)(=O)=O)cc1
760 nM	0.18 nM	2.5 nM	35.2 nM	100	6	NS(=O)(=O)c1ccc(-c2cnc3ccccc3c2)cc1
5.6 nM	124 nM	10.2 nM	656 nM			NS(=O)(=O)c1ccc(-c2cc3ccccc3[nH]2)cc1
> 10000 nM	0.21 nM	0.84 nM	370 nM	100		NS(=O)(=O)c1ccc(-c2cc3ccccc3s2)cc1
92.7 nM	0.21 nM	0.79 nM	41.5 nM	100	6	NS(=O)(=O)c1ccc(-c2ccccc2)cc1

Continued, molecule first:

SMILES	Ki [1]	Ki [2]	Ki [3]	Ki [4]	Ratio Ki [5]	Ratio Ki [6]
NS(=O)(=O)c1ccc(-c2ccc3[nH]ccc3c2)cc1	65 nM	0.17 nM	0.95 nM	24.5 nM	100	10
Nc1ccc(-c2ccc(S(N)(=O)=O)cc2)cc1	36.5 nM		12.3 nM	3700 nM		
NS(=O)(=O)c1ccc(-c2ccc(-c3ccc(S(N)(=O)=O)cc3)cc2)cc1	4.9 nM	240 nM	324 nM	> 10000 nM		
NS(=O)(=O)c1ccc(-c2ccc3c(c2)OCO3)cc1	5.2 nM	258 nM	18 nM	> 10000 nM		
COC(=O)c1cccc(-c2ccc(S(N)(=O)=O)cc2)c1	19.5 nM	159 nM	14.2 nM	6960 nM		
COc1ccc2[nH]c(-c3ccc(S(N)(=O)=O)cc3)cc2c1	415 nM	156 nM	764 nM	2640 nM		
NS(=O)(=O)c1ccc(-c2cccnc2)cc1	20.3 nM	78.1 nM	16.6 nM	2400 nM		
COc1cc(-c2ccc(S(N)(=O)=O)cc2)cc(OC)c1OC	32.2 nM	259 nM	19.1 nM	9520 nM		
NS(=O)(=O)c1ccc(-c2cc3ccccc3n2S(=O)(=O)c2ccccc2)cc1	33.9 nM	100 nM	11.7 nM	> 10000 nM		
NS(=O)(=O)c1ccc(-c2ccc(Cn3cccn3)cc2)cc1	38.3 nM	216 nM	11.1 nM	6970 nM		
NS(=O)(=O)c1ccc(-c2ccc(-c3ccc(Br)cc3)cc2)cc1	54.2 nM	224 nM	764 nM	> 10000 nM		
NS(=O)(=O)c1ccc(-c2cccc(-c3ccc(S(N)(=O)=O)cc3)c2)cc1	55.6 nM	276 nM	397 nM	> 10000 nM		
N#Cc1ccc(-c2ccc(S(N)(=O)=O)cc2)cc1	14.2 nM	228 nM	1.2 nM	1340 nM		
NS(=O)(=O)c1ccc(-c2cn(S(=O)(=O)c3ccccc3)c3ccccc23)cc1	96.7 nM	0.24 nM	0.68 nM	83.6 nM	100	
